Assay results from paper PMC11145891, “Effect of 2-hydroxyethylammonium carboxylate protic ionic liquids on the solubility and cytotoxicity of indomethacin” (BMC Chemistry, 2024).
Like-named read-outs stand apart in the source and are kept apart here. Values belong to the molecule of their own block, whether it stands above or below them.

How the values were obtained:
[1] = cited from earlier work
[2] = XRD of residual solids from solubility measurement; type: physicochemical; details: residual solids from saturated aqueous PIL solutions vs raw IMC
From the text: The XRD diffractograms of raw IMC crystals together with residuals crystals sampled from solubility measurement are depicted in Figure S4. (supporting information). It should be noted that quantitative analysis of phases in samples with preferential orientation or texture is not possible using traditional methods such as direct comparison. […] First, the stability of IMC in the presence of PILs was investigated. The analysis of the bottom phase(s) after the solubility experiments have been presented. There are different type of factors affecting the peak intensity of XRD. These type of factors are listed as: • The nature of the sample under test (single-phase or multiphase of the sample). • Powder samples have less peak intensity than bulk samples. (Due to the effect of absorption factor). • Grain size: the larger the grain size, the higher the peak intensity. For example, considering samples with the same chemical composition, which have been annealed at different times of heat treatment, a sample will have a higher peak intensity with a longer heat treatment time (longer annealing time = larger grain size). It should be noted that the smaller the grain size, the higher the […] is the amorphous part of the material, and as a result the background scatter in the diffraction pattern will increase and the peak intensity would decrease.

[3] = type: physicochemical
Method: Before obtaining dissolution data, a calibration curve for Indomethacin (IMC) was established (Fig. 2). A double-beam T80 UV-vis spectrometer (Japan) and a mixture of ethanol and distilled deionized water were employed to dissolve a specific amount of IMC to generate the calibration curve. Numerous methods were utilized to determine the experimental solubility data, encompassing the shake-flask method. […] Then, the excess amounts of IMC were added to glass vials holding a particular quantity of water and PILs, which were stirred and kept for 3 days in a water bath thermostat until equilibrium was reached. The temperature was adjusted with a precision of 0.01 K using an ED water bath thermostat (Julabo Co., Germany). After 3 days, the liquid and solid phases were separated employing a Hettich D-7200 centrifuge. At the next step, the liquid phase was appropriately diluted with an ethanol + water solution after filtering the saturated solutions through a 0.22 μm PTFE filter. The concentration of IMC in the solutions was measured by utilizing the calibration curve and a T80 UV-vis spectrometer (Japan). The mole fraction of IMC (x1) in the aqueous solutions containing PILs was determined, for the IMC + water, IMC + water combination, and IMC + PILs systems using the Eq. 1 [25, 26]:1 x1=[…]3, where Wi and Mi, respectively, indicate the weight fractions and molar mass weight fractions of each system component (i).

[4] = Apparent thermodynamic functions of IMC dissolution (van't Hoff and Gibbs equations); type: physicochemical
From the text: The van’t Hoff and Gibbs equations were employed for calculating the Thm = 305.55 K (the mean harmonic temperature), which was derived by considering into calculate temperatures (298.15 to 313.15 K). The thermodynamic parameters of dissolution have been evaluated by employing the apparent thermodynamic functions. […] On the other hand, the van’t Hoff plot, which is a plot of lnx1 versus 1/T-1/Thm , can be utilized to figure out:14 ΔHsoln∘=-R∂lnx1/∂1/T-1/ThmP, 15 ΔGsoln∘=-RThm×intercept.
In this manner, the values of ΔHsoln∘ and ΔGsoln∘ have been evaluated utilizing the slope and intercept of Eqs. 14 and 15. Furthermore, the following equation [47, 48] was applied to evaluate the standard molar entropy of dissolution, ΔSsoln∘ [49]:16 ΔSsoln∘=ΔHsoln∘-ΔGsoln∘/Thm.
Finally, in the IMC dissolution process, Eqs.

HT29 cell line [5] = experiment: MTT assay cytotoxicity of PILs; details: for IC50: MTT, 24 h exposure
Method: (§1) Pastor Institute of Iran generously provided the human colon adenocarcinoma cell line HT29. The cell lines were cultured in RPMI’s medium supplemented with 10% fetal bovine serum (FBS) and Culture medium containing FBS. The cell cultures were incubated at 37 °C in a humidified environment of 5% carbon dioxide—CO2.
(§2) The colorimetric MTT assay was used to assess the cytotoxic activity of PILs (Twentyman and Luscombe 1987). HT29 cells were seeded in 96-well plates and allowed to conform for the first step. The cells were then incubated for 24 h at 37 °C in 5% CO2 in a total of six concentrations (3–150 µg mL^−1) of the studied compounds diluted in RPMI medium (previously sterilized with a 0.22 m syringe filter). After 24 h of exposure, each well was filled with 50 µL of MTT solution (3 (4,5-dimethylthiazol-2-yl)-2,5-diphenyltetrazolium bromide (MTT) from Sigma-Aldrich) (2 mg. mL in PBS, pH 7.2). To dissolve the formazan crystals, the medium was substituted with 150 µL of dimethyl sulfoxide (DMSO) after 4 h of incubation.
(§3) The plate was shaking for around 1 h while being held out of direct sunlight. Cell viability was measured through the optical density of reduced MTT at 570–630 nm using a microplate reader (Synergy HT from BioTeK Instruments Inc., Winooski, VT, USA). The percentage of viable cells was calculated as the ratio between the absorbance of treated and control cells. Similarly, IC50 was estimated using a non-linear regression, logistic equation to determine the chemical concentration that causes a 50% reduction in cell viability [27].

HT29 cell line [6] = test system: HT29 cell line
Method: as §1, §2, §3

[7] = aq. MEAA, w3 = 0.0000, Thm = 305.55 K
[8] = aq. MEAA, w3 = 0.0200, Thm = 305.55 K
[9] = aq. MEAA, w3 = 0.0500, Thm = 305.55 K
[10] = aq. MEAA, w3 = 0.0700, Thm = 305.55 K
[11] = aq. MEAA, w3 = 0.1000, Thm = 305.55 K
[12] = aq. MEAA, w3 = 0.1500, Thm = 305.55 K
[13] = aq. MEAA, w3 = 0.2000, Thm = 305.55 K
[14] = aq. MEAL, w3 = 0.0000, Thm = 305.55 K
[15] = aq. MEAL, w3 = 0.0200, Thm = 305.55 K
[16] = aq. MEAL, w3 = 0.0500, Thm = 305.55 K
[17] = aq. MEAL, w3 = 0.0700, Thm = 305.55 K
[18] = aq. MEAL, w3 = 0.1000, Thm = 305.55 K
[19] = aq. MEAL, w3 = 0.1500, Thm = 305.55 K
[20] = aq. MEAL, w3 = 0.2000, Thm = 305.55 K
[21] = aq. MEAP, w3 = 0.0000, Thm = 305.55 K
[22] = aq. MEAP, w3 = 0.0200, Thm = 305.55 K
[23] = aq. MEAP, w3 = 0.0500, Thm = 305.55 K
[24] = aq. MEAP, w3 = 0.0700, Thm = 305.55 K
[25] = aq. MEAP, w3 = 0.1000, Thm = 305.55 K
[26] = aq. MEAP, w3 = 0.1500, Thm = 305.55 K
[27] = aq. MEAP, w3 = 0.2000, Thm = 305.55 K

solid phase stability in solubility measurements (XRD) [2]: no phase transformation
IMC solubility in MEAL PIL relative to water [3]: more than 200 times
increase of IMC solubility in PILs compared to pure water [3]: ~200 times
solubility (mole fraction) [3]: 20.71 × 10^−5 mole fraction
ΔGsoln∘ [4, 7]: 8.265 kcal/mol
ΔHsoln∘ [4, 7]: 6.052 kcal/mol
ξH [4, 7]: 73.23%
ξTS [4, 7]: 26.77%
ΔGsoln∘ [4, 8]: 6.804 kcal/mol
ΔHsoln∘ [4, 8]: 4.345 kcal/mol
ξH [4, 8]: 63.86%
ξTS [4, 8]: 36.14%
ΔGsoln∘ [4, 9]: 6.671 kcal/mol
ΔHsoln∘ [4, 9]: 3.662 kcal/mol
ξH [4, 9]: 54.90%
ξTS [4, 9]: 45.10%
ΔGsoln∘ [4, 10]: 6.604 kcal/mol
ΔHsoln∘ [4, 10]: 2.13 kcal/mol
ξH [4, 10]: 32.21%
ξTS [4, 10]: 67.79%
ΔGsoln∘ [4, 11]: 6.561 kcal/mol
ΔHsoln∘ [4, 11]: 2.55 kcal/mol
ξH [4, 11]: 38.86%
ξTS [4, 11]: 61.14%
ΔGsoln∘ [4, 12]: 6.422 kcal/mol
ΔHsoln∘ [4, 12]: 4.572 kcal/mol
ξH [4, 12]: 71.17%
ξTS [4, 12]: 28.83%
ΔGsoln∘ [4, 13]: 6.255 kcal/mol
ΔHsoln∘ [4, 13]: 2.536 kcal/mol
ξH [4, 13]: 40.54%
ξTS [4, 13]: 59.46%
ΔGsoln∘ [4, 14]: 8.265 kcal/mol
ΔHsoln∘ [4, 14]: 6.052 kcal/mol
ξH [4, 14]: 73.23%
ξTS [4, 14]: 26.77%
ΔGsoln∘ [4, 15]: 6.028 kcal/mol
ΔHsoln∘ [4, 15]: 5.282 kcal/mol
ξH [4, 15]: 87.61%
ξTS [4, 15]: 12.39%
TMΔSsoln∘ [4, 16]: 0.598 kcal/mol
ΔGsoln∘ [4, 16]: 5.746 kcal/mol
ΔHsoln∘ [4, 16]: 6.343 kcal/mol
ξH [4, 16]: 91.39%
ξTS [4, 16]: 8.61%
TMΔSsoln∘ [4, 17]: 2.457 kcal/mol
ΔGsoln∘ [4, 17]: 5.633 kcal/mol
ΔHsoln∘ [4, 17]: 8.09 kcal/mol
ξH [4, 17]: 76.70%
ξTS [4, 17]: 23.30%
TMΔSsoln∘ [4, 18]: 0.911 kcal/mol
ΔGsoln∘ [4, 18]: 5.471 kcal/mol
ΔHsoln∘ [4, 18]: 6.381 kcal/mol
ξH [4, 18]: 87.50%
ξTS [4, 18]: 12.50%
TMΔSsoln∘ [4, 19]: 2 kcal/mol
ΔGsoln∘ [4, 19]: 5.208 kcal/mol
ΔHsoln∘ [4, 19]: 7.206 kcal/mol
ξH [4, 19]: 78.28%
ξTS [4, 19]: 21.72%
TMΔSsoln∘ [4, 20]: 0.614 kcal/mol
ΔGsoln∘ [4, 20]: 5.036 kcal/mol
ΔHsoln∘ [4, 20]: 5.652 kcal/mol
ξH [4, 20]: 90.18%
ξTS [4, 20]: 9.82%
ΔGsoln∘ [4, 21]: 8.265 kcal/mol
ΔHsoln∘ [4, 21]: 6.052 kcal/mol
ξH [4, 21]: 73.23%
ξTS [4, 21]: 26.77%
TMΔSsoln∘ [4, 22]: 0.75 kcal/mol
ΔGsoln∘ [4, 22]: 6.965 kcal/mol
ΔHsoln∘ [4, 22]: 7.715 kcal/mol
ξH [4, 22]: 91.14%
ξTS [4, 22]: 8.86%
TMΔSsoln∘ [4, 23]: 1.91 kcal/mol
ΔGsoln∘ [4, 23]: 6.74 kcal/mol
ΔHsoln∘ [4, 23]: 8.65 kcal/mol
ξH [4, 23]: 81.92%
ξTS [4, 23]: 18.08%
TMΔSsoln∘ [4, 24]: 7.481 kcal/mol
ΔGsoln∘ [4, 24]: 6.616 kcal/mol
ΔHsoln∘ [4, 24]: 14.1 kcal/mol
ξH [4, 24]: 65.33%
ξTS [4, 24]: 34.67%
TMΔSsoln∘ [4, 25]: 11.89 kcal/mol
ΔGsoln∘ [4, 25]: 6.456 kcal/mol
ΔHsoln∘ [4, 25]: 18.34 kcal/mol
ξH [4, 25]: 60.68%
ξTS [4, 25]: 39.32%
TMΔSsoln∘ [4, 26]: 14.01 kcal/mol
ΔGsoln∘ [4, 26]: 6.066 kcal/mol
ΔHsoln∘ [4, 26]: 20.07 kcal/mol
ξH [4, 26]: 58.90%
ξTS [4, 26]: 41.10%
TMΔSsoln∘ [4, 27]: 9.183 kcal/mol
ΔGsoln∘ [4, 27]: 5.786 kcal/mol
ΔHsoln∘ [4, 27]: 14.97 kcal/mol
ξH [4, 27]: 61.98%
ξTS [4, 27]: 38.02%
Compound: COc1ccc2c(c1)c(CC(=O)O)c(C)n2C(=O)c1ccc(Cl)cc1 [Indomethacin]
solubility (mole fraction) ([1]; ethanol/water (wETOH = 0.2), 298.15 K, ref Peña et al.): 1.13 × 10^−5 mole fraction
solubility (mole fraction) ([1]; propylene glycol/water, 0.4 weight fraction propylene glycol, 303.15 K, ref Holguín et al. 52): 7.61 × 10^–6 mole fraction

Compound: CC(=O)O.NCCO [MEAA, 2-Hydroxyethylammonium acetate]
IC50 (HT29 cell line [5]): 26.40 ± 0.006 µg/mL
cytotoxic effect category (HT29 cell line [6]): moderate

Compound: CC(O)C(=O)O.NCCO (centres unmarked) [MEAL, 2-Hydroxyethylammonium lactate]
IC50 (HT29 cell line [5]): 79.23 ± 0.001 µg/mL
cytotoxic effect category (HT29 cell line [6]): moderate

Compound: CCC(=O)O.NCCO [MEAP, 2-Hydroxyethylammonium propionate]
cytotoxic effect category (HT29 cell line [5]): moderate
IC50 (HT29 cell line [5]): 67.19 ± 0.049 µg/mL
